Assays:
lipoamide = compound: NC(=O)CCCCC1CCSS1 [lipoamide]; assay: thermal stability z-score vs DMSO; higher = more thermally stabilized by treatment; conditions: HeLa, lipoamide concentration 100 µM
Method: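 Cellular thermal proteome profiling in HeLa cells. Cells were treated with 100 µM lipoamide for 1 h, with or without 1 mM arsenate for a further 1 h, then heated to ten temperatures (37-66.3 °C), and soluble protein was quantified by TMT mass spectrometry relative to 0.1% DMSO controls. The thermal stability score (sum of log2 fold changes minus the abundance score) was transformed to a z-score; mean of n = 3 experiments.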

potassium arsenate = compound: O=[As]([O-])(O)O.[K+] [potassium arsenate]; assay: as above; conditions: HeLa; arsenate concentration 1 mM
Method: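 Cellular thermal proteome profiling in HeLa cells treated with 1 mM arsenate for 1 h (DMSO pretreatment), heated to ten temperatures (37-66.3 °C). Soluble protein was quantified by TMT mass spectrometry relative to DMSO controls; the thermal stability score was transformed to a z-score; mean of n = 3 experiments.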

[1] = arsenate co-treatment: 1 mM arsenate 1 h
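Further: each temperature applied for 3 min, abundance score taken as mean log2 fold change at the two lowest temperatures, z-score obtained by mean subtraction and division by SD.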

Sequence of UniProt Q99496 (Q99496 whole entry): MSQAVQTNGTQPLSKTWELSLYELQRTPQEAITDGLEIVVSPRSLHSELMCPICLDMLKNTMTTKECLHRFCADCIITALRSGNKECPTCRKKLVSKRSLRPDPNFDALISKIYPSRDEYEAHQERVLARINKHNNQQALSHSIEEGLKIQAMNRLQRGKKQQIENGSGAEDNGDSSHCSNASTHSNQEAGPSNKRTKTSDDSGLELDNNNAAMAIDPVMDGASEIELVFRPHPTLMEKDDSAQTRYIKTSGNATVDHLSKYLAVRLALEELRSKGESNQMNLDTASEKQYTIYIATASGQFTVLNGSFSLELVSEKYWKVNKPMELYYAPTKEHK
Sequence of UniProt Q14061 (Q14061 whole entry): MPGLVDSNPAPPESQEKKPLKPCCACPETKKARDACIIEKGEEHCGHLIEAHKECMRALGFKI
Sequence of UniProt Q53S33 (Q53S33 whole entry): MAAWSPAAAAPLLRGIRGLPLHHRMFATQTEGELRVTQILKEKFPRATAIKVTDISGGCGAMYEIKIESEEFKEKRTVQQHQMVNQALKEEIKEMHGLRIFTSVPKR
Sequence of UniProt Q14151 (Q14151 whole entry): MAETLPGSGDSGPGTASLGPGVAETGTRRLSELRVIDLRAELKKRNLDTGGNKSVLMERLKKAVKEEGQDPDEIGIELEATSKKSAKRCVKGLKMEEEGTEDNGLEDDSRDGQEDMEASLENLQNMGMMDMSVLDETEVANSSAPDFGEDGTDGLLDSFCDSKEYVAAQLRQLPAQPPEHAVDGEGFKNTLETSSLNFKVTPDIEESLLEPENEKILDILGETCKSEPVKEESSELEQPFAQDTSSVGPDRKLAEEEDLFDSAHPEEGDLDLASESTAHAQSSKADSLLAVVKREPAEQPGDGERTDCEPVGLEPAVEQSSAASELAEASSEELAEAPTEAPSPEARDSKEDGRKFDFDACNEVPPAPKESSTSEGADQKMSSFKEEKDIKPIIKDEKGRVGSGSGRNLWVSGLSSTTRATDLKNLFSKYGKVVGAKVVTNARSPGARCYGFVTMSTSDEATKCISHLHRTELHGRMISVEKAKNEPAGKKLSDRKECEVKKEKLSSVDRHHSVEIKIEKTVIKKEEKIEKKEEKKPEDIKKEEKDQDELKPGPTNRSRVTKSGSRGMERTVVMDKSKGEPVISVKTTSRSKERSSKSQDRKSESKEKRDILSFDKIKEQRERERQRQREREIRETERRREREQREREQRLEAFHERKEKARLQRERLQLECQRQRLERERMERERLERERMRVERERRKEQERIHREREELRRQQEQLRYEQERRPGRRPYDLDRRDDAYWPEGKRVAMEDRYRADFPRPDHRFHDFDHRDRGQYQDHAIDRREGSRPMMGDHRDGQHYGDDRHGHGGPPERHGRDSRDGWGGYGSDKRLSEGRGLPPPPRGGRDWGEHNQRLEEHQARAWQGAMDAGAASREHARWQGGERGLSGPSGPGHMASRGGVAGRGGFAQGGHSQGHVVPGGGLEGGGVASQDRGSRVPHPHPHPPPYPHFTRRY
Sequence of UniProt Q9H4M9 (Q9H4M9 whole entry): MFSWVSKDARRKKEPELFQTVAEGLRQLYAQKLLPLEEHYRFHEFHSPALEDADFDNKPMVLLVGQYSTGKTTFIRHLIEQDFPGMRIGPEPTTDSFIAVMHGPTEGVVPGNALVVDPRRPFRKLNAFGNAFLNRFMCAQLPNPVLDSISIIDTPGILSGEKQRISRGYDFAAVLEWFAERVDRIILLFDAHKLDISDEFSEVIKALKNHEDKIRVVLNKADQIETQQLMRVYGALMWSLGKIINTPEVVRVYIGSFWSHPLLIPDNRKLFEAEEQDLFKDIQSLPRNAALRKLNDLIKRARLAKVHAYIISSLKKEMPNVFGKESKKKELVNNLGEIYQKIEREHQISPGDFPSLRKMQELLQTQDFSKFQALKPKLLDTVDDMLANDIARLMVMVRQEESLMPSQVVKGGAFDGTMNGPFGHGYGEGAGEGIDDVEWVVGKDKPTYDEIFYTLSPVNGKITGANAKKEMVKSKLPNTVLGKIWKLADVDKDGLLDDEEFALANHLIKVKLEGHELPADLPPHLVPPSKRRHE
Sequence of UniProt P51151 (P51151 whole entry): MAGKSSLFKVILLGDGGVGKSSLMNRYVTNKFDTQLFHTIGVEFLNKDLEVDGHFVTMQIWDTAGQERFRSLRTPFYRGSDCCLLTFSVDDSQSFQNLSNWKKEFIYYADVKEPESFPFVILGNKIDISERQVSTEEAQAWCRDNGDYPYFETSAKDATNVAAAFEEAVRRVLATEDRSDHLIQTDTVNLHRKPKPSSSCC
Sequence of UniProt Q9BY42 (Q9BY42 whole entry): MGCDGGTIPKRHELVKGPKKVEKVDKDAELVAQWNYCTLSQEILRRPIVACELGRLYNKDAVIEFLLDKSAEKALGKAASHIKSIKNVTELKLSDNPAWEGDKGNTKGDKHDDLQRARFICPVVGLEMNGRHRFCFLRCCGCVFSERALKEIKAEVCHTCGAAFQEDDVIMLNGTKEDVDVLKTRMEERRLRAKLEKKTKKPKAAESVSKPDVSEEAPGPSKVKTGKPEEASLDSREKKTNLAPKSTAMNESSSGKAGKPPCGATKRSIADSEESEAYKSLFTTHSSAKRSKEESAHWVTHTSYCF
Sequence of UniProt Q92613 (Q92613 whole entry): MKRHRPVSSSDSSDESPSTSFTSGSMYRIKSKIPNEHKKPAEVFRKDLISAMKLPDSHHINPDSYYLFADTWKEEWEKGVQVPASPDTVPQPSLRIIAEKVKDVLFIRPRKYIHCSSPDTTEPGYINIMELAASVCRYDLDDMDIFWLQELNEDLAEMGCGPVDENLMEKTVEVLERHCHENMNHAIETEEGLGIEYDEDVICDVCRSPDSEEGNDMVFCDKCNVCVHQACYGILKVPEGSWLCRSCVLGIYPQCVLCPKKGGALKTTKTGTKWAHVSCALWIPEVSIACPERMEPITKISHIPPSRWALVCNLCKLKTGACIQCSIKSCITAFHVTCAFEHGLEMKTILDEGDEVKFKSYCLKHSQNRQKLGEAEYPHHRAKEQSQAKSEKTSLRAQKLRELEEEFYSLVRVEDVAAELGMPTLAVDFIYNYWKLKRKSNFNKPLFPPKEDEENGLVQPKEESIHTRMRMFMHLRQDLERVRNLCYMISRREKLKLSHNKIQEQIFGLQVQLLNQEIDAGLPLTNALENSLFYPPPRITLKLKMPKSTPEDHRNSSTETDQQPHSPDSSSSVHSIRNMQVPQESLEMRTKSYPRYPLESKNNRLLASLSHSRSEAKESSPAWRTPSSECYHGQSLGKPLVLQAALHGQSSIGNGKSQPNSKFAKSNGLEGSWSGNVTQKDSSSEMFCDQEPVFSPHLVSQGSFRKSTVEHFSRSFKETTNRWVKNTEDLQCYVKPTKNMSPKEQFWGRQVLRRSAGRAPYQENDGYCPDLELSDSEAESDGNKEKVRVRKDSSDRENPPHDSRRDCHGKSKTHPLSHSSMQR
Sequence of UniProt Q9P016 (Q9P016 whole entry): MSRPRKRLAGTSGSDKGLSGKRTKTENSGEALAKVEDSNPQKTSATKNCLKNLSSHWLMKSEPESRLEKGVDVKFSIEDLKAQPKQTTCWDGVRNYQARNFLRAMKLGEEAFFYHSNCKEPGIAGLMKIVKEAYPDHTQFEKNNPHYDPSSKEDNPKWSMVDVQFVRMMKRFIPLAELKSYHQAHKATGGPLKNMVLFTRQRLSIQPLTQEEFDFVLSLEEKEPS
Sequence of UniProt Q9UJ41 (Q9UJ41 whole entry): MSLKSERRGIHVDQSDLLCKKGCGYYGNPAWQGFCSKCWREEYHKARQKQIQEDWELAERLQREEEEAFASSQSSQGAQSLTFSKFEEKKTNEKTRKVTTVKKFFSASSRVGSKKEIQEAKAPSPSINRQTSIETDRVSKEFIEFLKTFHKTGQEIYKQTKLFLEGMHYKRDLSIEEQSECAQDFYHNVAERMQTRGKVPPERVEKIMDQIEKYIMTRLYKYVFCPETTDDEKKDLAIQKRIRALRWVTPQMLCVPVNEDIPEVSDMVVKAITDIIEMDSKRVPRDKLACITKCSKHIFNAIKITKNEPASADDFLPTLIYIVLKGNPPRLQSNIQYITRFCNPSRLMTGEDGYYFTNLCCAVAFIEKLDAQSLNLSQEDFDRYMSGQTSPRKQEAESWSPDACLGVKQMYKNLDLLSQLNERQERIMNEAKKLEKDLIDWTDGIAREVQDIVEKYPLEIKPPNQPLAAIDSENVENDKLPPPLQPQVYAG
Sequence of UniProt P48594 (P48594 whole entry): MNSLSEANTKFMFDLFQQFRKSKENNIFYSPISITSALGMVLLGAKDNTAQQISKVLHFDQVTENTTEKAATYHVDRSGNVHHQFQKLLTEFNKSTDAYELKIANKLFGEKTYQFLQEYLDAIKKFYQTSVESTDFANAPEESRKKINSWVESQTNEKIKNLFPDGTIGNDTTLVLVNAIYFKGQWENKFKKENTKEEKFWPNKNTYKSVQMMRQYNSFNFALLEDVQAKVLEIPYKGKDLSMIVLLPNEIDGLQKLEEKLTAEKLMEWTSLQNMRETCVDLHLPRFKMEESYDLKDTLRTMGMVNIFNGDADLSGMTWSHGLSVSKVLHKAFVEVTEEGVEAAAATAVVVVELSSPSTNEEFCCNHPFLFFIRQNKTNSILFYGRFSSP
Sequence of UniProt Q8IZP0 (Q8IZP0 whole entry): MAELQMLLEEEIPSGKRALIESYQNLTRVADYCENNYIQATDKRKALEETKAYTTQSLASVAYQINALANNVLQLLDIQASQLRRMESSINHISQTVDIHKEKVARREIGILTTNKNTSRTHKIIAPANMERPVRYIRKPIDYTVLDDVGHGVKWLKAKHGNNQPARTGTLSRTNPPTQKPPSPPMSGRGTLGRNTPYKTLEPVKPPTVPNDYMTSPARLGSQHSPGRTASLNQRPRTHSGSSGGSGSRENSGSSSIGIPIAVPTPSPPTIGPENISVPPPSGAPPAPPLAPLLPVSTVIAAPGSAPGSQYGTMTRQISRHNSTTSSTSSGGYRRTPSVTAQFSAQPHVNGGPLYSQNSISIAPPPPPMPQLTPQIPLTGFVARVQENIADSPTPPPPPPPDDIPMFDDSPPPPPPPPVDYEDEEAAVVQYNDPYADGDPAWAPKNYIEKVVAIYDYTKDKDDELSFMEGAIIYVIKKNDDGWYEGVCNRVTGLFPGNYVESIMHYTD

Target	thermal stability z-score (lipoamide; [1])	thermal stability z-score (lipoamide; arsenate co-treatment: none)	thermal stability z-score (potassium arsenate)
ERCC6L (UniProt Q2NKX8)	-0.457	-0.258	0.265
CTU1 (UniProt Q7Z7A3)	-0.119	-0.0524	-0.16
EHD1 (UniProt Q9H4M9)	-0.0636	0.13	-0.0304
PFDN1 (UniProt O60925)	1.42	1.53	0.744
RAB18 (UniProt Q9NP72)	0.167	0.352	0.672
ADCK1 (UniProt Q86TW2)	0.36	-0.122	-0.00585
RPS24 (UniProt P62847)	0.103	-0.101	-0.971
ABL1 (UniProt P00519)	-0.261	-0.21	0.137
BOLA3 (UniProt Q53S33)	-0.103	-0.245	0.0193
UBE4B (UniProt O95155)	-0.444	-0.412	0.599
GTF3A (UniProt Q92664)	-0.654	-0.754	-1.35
HSD17B8 (UniProt Q92506)	0.281	0.0946	-0.785
NEDD1 (UniProt Q8NHV4)	0.124	0.153	0.216
JADE3 (UniProt Q92613)	-0.12	0.143	-0.474
RABGEF1 (UniProt Q9UJ41)	-0.0343	-0.0874	-0.113
GDPD3 (UniProt Q7L5L3)	0.187	-0.422	0.114
LRP6 (UniProt O75581)	-2.59	-1.1	-0.531
RPL11 (UniProt P62913)	0.156	0.371	-1.44
TARBP1 (UniProt Q13395)	-0.285	-0.136	0.121
ABI1 (UniProt Q8IZP0)	-0.715	-0.452	-0.656
NBAS (UniProt A2RRP1)	0.00568	0.0731	-0.0529
TAF7 (UniProt Q15545)	-0.3	-0.347	0.641
KPNA3 (UniProt O00505)	-1.01	-0.146	-0.288
CDK2AP1 (UniProt O14519)	-0.0893	-0.224	-0.113

Target	thermal stability z-score (lipoamide; [1])	thermal stability z-score (lipoamide; arsenate co-treatment: none)	thermal stability z-score (potassium arsenate)
RNF2 (UniProt Q99496)	-0.111	-0.172	-0.107
CCDC127 (UniProt Q96BQ5)	-0.707	-0.371	-0.192
SNX9 (UniProt Q9Y5X1)	-0.0697	-0.0413	0.276
ACTL6A (UniProt O96019)	2.1	0.96	-0.336
KLHDC3 (UniProt Q9BQ90)	0.45	-0.351	1.05
CPSF7 (UniProt Q8N684)	0.18	0.191	-0.36
CHMP7 (UniProt Q8WUX9)	-0.517	-0.865	-0.0641
RAB9A (UniProt P51151)	0.654	0.721	0.801
SCAMP3 (UniProt O14828)	0.525	0.319	-0.277
UCK2 (UniProt Q9BZX2)	-0.0152	0.141	0.093
COX17 (UniProt Q14061)	-0.762	-2.24	-2.23
OXR1 (UniProt Q8N573)	0.209	0.17	0.101
GUK1 (UniProt Q16774)	0.321	0.714	0.29
CHCHD4 (UniProt Q8N4Q1)	0.0185	0.497	-0.236
PPP2R1B (UniProt P30154)	0.0372	-0.0931	0.107
FAM96A (UniProt Q9H5X1)	-0.0873	-0.652	-1.34
CNTLN (UniProt Q9NXG0)	-0.163	-0.342	-0.0711
ATIC (UniProt P31939)	0.0982	-0.0656	-1.07
INPP5A (UniProt Q14642)	-1.28	-0.144	0.656
UniProt E7EQ34|GOSR2	-0.785	-0.401	-0.878
YKT6 (UniProt O15498)	-0.198	0.453	-0.597
FMNL1 (UniProt O95466)	-0.412	-0.507	-0.153
TMOD3 (UniProt Q9NYL9)	-0.494	0.384	0.732
STUB1 (UniProt Q9UNE7)	-0.065	-0.23	0.207

Target	thermal stability z-score (lipoamide; [1])	thermal stability z-score (lipoamide; arsenate co-treatment: none)	thermal stability z-score (potassium arsenate)
MKNK1 (UniProt Q9BUB5)	-0.146	-0.928	-1.53
HMGN1 (UniProt P05114)	0.242	0.681	-0.289
EML1 (UniProt O00423)	0.345	0.15	-0.156
EXOSC9 (UniProt Q06265)	0.0277	-1.24	-1.59
RPL14 (UniProt P50914)	0.565	0.492	-1.08
OSBPL11 (UniProt Q9BXB4)	-0.766	-0.267	0.989
MINPP1 (UniProt Q9UNW1)	-3.92	-4.05	-0.105
POLR3A (UniProt O14802)	0.0126	-0.887	-1.69
CPD (UniProt O75976)	-0.796	-0.794	0.546
TYSND1 (UniProt Q2T9J0)	-0.12	-0.377	-0.646
SERPINB4 (UniProt P48594)	0.303	0.197	-0.0226
HOMER3 (UniProt Q9NSC5)	0.5	0.526	0.462
SAFB2 (UniProt Q14151)	1.41	0.112	-0.545
ZNF629 (UniProt Q9UEG4)	0.162	-0.369	-0.114
SREK1 (UniProt Q8WXA9)	0.0164	0.0581	0.00931
ALG11 (UniProt Q2TAA5)	0.266	-0.15	0.806
IP6K1 (UniProt Q92551)	0.327	-0.471	-0.179
NANS (UniProt Q9NR45)	0.185	0.107	0.887
RHOBTB3 (UniProt O94955)	0.00346	0.217	-0.0881
ARL2BP (UniProt Q9Y2Y0)	-0.0213	0.0527	-0.326
KIAA0368|ECM29	-0.212	0.501	0.537
RTFDC1 (UniProt Q9BY42)	-1.39	-0.367	-1.48
THYN1 (UniProt Q9P016)	0.476	0.00625	-0.603

Source: the supplement of paper PMC12463676, “Small-molecule dissolution of stress granules by redox modulation benefits ALS models” (Nature Chemical Biology, 2025)
